# In patent EP4711361A1, “NITROGEN-CONTAINING HETEROCYCLIC COMPOUND AND USE THEREOF” (Jiangsu Deyuan Pharmaceutical Co.,Ltd., priority 2023, dated 2024):
# Like-named read-outs stand apart in the source and are kept apart here.
# Legend:
# CYP3A4 = target: T1, CYP3A4 (Homo sapiens, UniProt P08684); test: Human liver microsome CYP inhibition assay, CYP3A4; type: in vitro ADME
# T1 construct: Mixed human liver microsomes (HLM) were purchased from Corning Inc; tissue Corning Inc; host or cells: pooled (mixed) human liver microsomes
# Procedure: (§1) Experimental objective: To evaluate the inhibitory activity of the test substance on human liver microsomal cytochrome P450 isoenzymes (CYP1A2, CYP2C9, CYP2C19, CYP2D6, CYP3A4) using a 5-in-1 probe substrate for CYP isoenzymes.
# (§2) Mixed human liver microsomes (HLM) were purchased from Corning Inc. (Steuben, New York, USA) and stored at temperatures below -70°C prior to use.
# (§3) The working solution of the test substance, which had been diluted to a series of concentrations, was added to an incubation system containing human liver microsomes, probe substrates, and auxiliary factors of the circulatory system. A control containing solvent but no test substance served as an enzyme activity control (100%). The concentration of metabolites produced from probe substrates in the samples was determined using Liquid Chromatography-Tandem Mass Spectrometry (LC-MS/MS) method. Non-linear regression analysis of the average percentage activity of the test substance against its concentration was conducted using SigmaPlot (V.11). The IC50 values were calculated using a three-parameter or four-parameter inverse log equation. Table 10: Cytochrome P450 isoenzyme half maximal inhibitory concentration IC50 (µM)
# in vivo = settings: rat, po, 2 mg/kg
# CYP2D6 = target: T2, CYP2D6 (Homo sapiens, UniProt P10635); test: Human liver microsome CYP inhibition assay, CYP2D6; type: in vitro ADME
# T2 construct: Mixed human liver microsomes (HLM) were purchased from Corning Inc; tissue Corning Inc; host or cells: pooled (mixed) human liver microsomes
# Procedure: as §1, §2, §3
# CYP2C9 = target: T3, CYP2C9 (Homo sapiens, UniProt P11712); test: Human liver microsome CYP inhibition assay, CYP2C9; type: in vitro ADME
# T3 construct: Mixed human liver microsomes (HLM) were purchased from Corning Inc; tissue Corning Inc; host or cells: pooled (mixed) human liver microsomes
# Procedure: as §1, §2, §3
# human CYP11B2 = target: T4, human CYP11B2 (Homo sapiens, UniProt P19099); test: In vitro activity assay of monoclonal cells overexpressing human CYP11B2; type: cell-based; settings: G402 cells overexpressing human CYP11B2; 1 µM 11-deoxycorticosterone, 16 hours; aldosterone by LC-MS/MS
# T4 construct: expressed in transfected cells; host or cells: human renal leiomyoma G402 cells (monoclonal)
# T4 sequence (P19099 25-503): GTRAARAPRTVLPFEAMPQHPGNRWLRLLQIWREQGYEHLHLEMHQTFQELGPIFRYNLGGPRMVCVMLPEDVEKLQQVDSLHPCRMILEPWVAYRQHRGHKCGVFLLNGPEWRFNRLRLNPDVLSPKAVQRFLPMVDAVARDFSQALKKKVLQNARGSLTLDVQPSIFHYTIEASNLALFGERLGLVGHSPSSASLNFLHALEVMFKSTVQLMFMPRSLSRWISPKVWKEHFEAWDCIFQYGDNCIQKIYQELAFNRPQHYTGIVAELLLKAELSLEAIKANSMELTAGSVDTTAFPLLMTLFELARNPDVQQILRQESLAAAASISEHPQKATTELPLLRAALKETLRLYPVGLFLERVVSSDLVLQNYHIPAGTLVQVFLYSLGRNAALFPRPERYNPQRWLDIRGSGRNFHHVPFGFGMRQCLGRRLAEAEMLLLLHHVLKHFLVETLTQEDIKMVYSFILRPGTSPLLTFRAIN
# Procedure: The human renal leiomyoma G402 cell line overexpressing human CYP11B2 was selected to serve as a compound activity screening system. Table 1: Cell and reagent information
# 2) Compound details: The test compound was prepared as a 10 µM working concentration using DMSO. 3) Experimental procedure
# Day 1: Cells were digested, and human renal leiomyoma G402 cells overexpressing human CYP11B2 were resuspended to 1×10^5 cells/mL, with 100 µL seeded into a 96-well plate.
# (§4) Day 3: The cell supernatant was collected and added to 200 µL of a methanol solution containing internal standards (internal standards: 35 ng/mL ketoprofen or 7.5 ng/mL carbamazepine or 5 ng/mL diphenhydramine or 10 ng/mL tolbutamide). The mixture was vortexed and centrifuged (4000×g, 4°C, 5 minutes). Then, 100 µL of the supernatant was taken and mixed with 100 µL of pure water.
# Ratio = Aldosterone peak area/Internal standard peak area [formula] Control activity% = (Ratiotestcompound/RatioDMSO) × 100% [formula]
# (§5) "Ratio test compound" represents the Ratio values at different concentrations of the test compound.
# (§6) "Ratio DMSO" represents the Ratio value without the addition of the test compound. • X = Log (compound concentration) • Y = Control activity%
# The IC50 of the test compound was determined by fitting to a nonlinear regression equation using XLfit 5.5.0. Table 3: Results for in vitro activity assay of monoclonal cells overexpressing human CYP11B2
# CYP2C19 = target: T5, CYP2C19 (Homo sapiens, UniProt P33261); test: Human liver microsome CYP inhibition assay, CYP2C19; type: in vitro ADME
# T5 construct: Mixed human liver microsomes (HLM) were purchased from Corning Inc; tissue Corning Inc; host or cells: pooled (mixed) human liver microsomes
# Procedure: as §1, §2, §3
# human CYP11B1 = target: T6, human CYP11B1 (Homo sapiens, UniProt P15538); test: In vitro activity assay of monoclonal cells overexpressing human CYP11B1; type: cell-based; settings: G402 cells overexpressing human CYP11B1; 1 µM 11-deoxycortisol, 16 hours; cortisol by LC-MS/MS
# T6 construct: expressed in transfected cells; host or cells: human renal leiomyoma G402 cells (monoclonal)
# T6 sequence (P15538 25-503): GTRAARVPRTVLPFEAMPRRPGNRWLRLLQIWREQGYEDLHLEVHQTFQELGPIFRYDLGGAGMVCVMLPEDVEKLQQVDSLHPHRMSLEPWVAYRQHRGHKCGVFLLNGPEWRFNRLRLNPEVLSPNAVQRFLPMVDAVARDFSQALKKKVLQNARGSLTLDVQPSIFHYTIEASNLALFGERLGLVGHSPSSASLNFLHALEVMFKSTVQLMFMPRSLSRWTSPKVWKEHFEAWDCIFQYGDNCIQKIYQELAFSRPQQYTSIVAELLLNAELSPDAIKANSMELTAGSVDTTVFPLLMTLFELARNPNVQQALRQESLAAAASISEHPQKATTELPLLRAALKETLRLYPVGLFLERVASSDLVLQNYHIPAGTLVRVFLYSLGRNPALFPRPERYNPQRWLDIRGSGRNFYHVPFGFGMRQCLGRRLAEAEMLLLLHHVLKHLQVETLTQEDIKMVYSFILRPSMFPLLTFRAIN
# Procedure: The human renal leiomyoma G402 cell line overexpressing human CYP11B1 was selected to serve as a compound selectivity screening system.
# Day 1: Cells were digested, and human renal leiomyoma G402 cells overexpressing CYP11B1 were resuspended to 1×10^5 cells/mL, with 100 µL seeded into a 96-well plate.
# as §4
# Ratio = Cortisol peak area/Internal standard peak area [formula] Control activity% = (Ratiotestcompound/RatioDMSO) × 100% [formula]
# as §5, §6
# The IC50 of the test compound was determined by fitting to a nonlinear regression equation using XLfit 5.5.0. Table 4: Results for in vitro activity assay of monoclonal cells overexpressing human CYP11B1
# CYP1A2 = target: T7, CYP1A2 (Homo sapiens, UniProt P05177); test: Human liver microsome CYP inhibition assay, CYP1A2; type: in vitro ADME
# T7 construct: Mixed human liver microsomes (HLM) were purchased from Corning Inc; tissue Corning Inc; host or cells: pooled (mixed) human liver microsomes
# Procedure: as §1, §2, §3
# T5 sequence (P33261 whole entry): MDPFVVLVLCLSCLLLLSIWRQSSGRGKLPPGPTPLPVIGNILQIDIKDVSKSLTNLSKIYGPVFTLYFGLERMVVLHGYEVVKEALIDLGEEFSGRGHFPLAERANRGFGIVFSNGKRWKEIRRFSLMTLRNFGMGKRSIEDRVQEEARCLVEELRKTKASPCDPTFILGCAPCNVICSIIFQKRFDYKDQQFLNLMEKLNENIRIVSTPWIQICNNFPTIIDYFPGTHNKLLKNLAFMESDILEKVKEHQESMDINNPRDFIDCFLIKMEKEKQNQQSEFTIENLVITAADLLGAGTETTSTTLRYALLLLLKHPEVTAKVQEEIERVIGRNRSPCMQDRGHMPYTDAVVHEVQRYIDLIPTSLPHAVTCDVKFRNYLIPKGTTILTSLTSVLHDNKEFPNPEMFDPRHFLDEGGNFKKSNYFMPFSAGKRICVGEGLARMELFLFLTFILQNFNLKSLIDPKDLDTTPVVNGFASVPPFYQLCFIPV
# T7 sequence (P05177 whole entry): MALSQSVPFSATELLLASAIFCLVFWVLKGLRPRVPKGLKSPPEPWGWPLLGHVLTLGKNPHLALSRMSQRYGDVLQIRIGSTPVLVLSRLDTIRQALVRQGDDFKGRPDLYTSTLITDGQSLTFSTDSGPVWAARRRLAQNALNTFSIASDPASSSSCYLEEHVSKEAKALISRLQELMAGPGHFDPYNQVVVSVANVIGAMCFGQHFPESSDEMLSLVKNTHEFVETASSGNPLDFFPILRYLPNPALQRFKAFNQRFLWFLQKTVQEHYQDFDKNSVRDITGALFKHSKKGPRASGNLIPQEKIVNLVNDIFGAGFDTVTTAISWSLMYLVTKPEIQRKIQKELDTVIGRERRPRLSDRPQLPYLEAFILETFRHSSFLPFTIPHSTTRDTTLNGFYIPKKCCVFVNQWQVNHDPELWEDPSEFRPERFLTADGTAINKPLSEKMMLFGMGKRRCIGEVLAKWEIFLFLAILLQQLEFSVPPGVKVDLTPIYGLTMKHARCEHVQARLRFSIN
# T2 sequence (P10635 whole entry): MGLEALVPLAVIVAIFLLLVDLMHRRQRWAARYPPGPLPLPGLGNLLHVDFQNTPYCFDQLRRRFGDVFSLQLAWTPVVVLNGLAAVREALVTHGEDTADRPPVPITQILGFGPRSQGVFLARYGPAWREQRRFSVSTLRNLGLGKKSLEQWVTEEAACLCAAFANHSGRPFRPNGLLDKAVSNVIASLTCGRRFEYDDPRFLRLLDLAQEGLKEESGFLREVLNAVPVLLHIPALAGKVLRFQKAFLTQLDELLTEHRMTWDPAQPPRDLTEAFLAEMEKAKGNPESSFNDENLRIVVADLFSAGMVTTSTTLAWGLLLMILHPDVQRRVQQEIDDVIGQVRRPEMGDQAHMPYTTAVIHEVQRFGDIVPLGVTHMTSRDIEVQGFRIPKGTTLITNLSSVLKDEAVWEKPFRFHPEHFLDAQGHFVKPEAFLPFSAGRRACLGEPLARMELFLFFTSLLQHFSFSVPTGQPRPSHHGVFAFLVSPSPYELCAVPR
# T1 sequence (P08684 whole entry): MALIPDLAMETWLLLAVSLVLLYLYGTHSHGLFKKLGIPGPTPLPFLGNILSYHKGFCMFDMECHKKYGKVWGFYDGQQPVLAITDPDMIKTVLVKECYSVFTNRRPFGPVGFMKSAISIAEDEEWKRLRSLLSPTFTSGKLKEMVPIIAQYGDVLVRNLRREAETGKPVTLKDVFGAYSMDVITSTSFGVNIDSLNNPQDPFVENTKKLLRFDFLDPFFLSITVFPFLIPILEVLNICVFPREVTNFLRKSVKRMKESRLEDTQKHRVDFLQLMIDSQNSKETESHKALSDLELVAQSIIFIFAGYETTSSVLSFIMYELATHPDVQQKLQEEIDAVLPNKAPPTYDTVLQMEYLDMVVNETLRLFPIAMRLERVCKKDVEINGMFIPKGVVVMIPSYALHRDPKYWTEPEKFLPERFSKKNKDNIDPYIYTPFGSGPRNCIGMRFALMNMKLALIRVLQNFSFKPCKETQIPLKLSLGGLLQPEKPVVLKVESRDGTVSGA
# T3 sequence (P11712 whole entry): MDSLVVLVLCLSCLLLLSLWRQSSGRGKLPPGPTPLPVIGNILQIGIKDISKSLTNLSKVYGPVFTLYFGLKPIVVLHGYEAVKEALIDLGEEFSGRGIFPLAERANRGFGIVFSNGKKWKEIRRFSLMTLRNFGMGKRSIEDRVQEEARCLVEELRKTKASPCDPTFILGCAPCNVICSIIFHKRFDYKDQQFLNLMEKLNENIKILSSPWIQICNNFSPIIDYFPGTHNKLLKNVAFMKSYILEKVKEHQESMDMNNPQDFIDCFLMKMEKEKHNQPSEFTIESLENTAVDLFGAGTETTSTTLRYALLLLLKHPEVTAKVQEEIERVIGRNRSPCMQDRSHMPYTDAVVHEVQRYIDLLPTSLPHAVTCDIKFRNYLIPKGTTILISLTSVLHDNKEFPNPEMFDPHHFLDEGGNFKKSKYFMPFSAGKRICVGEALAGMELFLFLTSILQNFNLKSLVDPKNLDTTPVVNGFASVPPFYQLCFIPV
SMILES,IC50 (CYP3A4),AUC(0-t) at 24 h (in vivo),Cmax (in vivo),bioavailability (in vivo),half-life (in vivo),IC50 (CYP2D6),IC50 (CYP2C9),IC50 (human CYP11B2),IC50 (CYP2C19),IC50 (human CYP11B1),IC50 (CYP1A2),"IC50 (CYP3A4; mixed human liver microsomes, 5-in-1 probe substrate, read-out: Cytochrome P450 isoenzyme half maximal inhibitory concentration IC50 (µM) CYP3A4)","IC50 (CYP2D6; mixed human liver microsomes, 5-in-1 probe substrate, read-out: Cytochrome P450 isoenzyme half maximal inhibitory concentration IC50 (µM) CYP2D6)","IC50 (CYP2C9; mixed human liver microsomes, 5-in-1 probe substrate, read-out: Cytochrome P450 isoenzyme half maximal inhibitory concentration IC50 (µM) CYP2C9)","IC50 (CYP2C19; mixed human liver microsomes, 5-in-1 probe substrate, read-out: Cytochrome P450 isoenzyme half maximal inhibitory concentration IC50 (µM) CYP2C19)","IC50 (CYP1A2; mixed human liver microsomes, 5-in-1 probe substrate, read-out: Cytochrome P450 isoenzyme half maximal inhibitory concentration IC50 (µM) CYP1A2)"
"CCC(=O)NC1CCCc2c(-c3cc4c(s3)N(C)C(=O)CC4)cncc21 (single isomer, unassigned) [Compound 017]",> 50 µM,8.13 µM·h,4.17 µM,115%,1.34 h,> 50 µM,45.1 µM,0.00209 µM,> 50 µM,0.322 µM,> 50 µM,,,,,
"CCC(=O)N[C@@H]1CCCc2c(-c3ccc4c(ccc(=O)n4C)c3)cncc21 (single isomer, unassigned) [Compound 001]",,,,,,,,0.012 µM,,2.47 µM,,> 50 µM,> 50 µM,> 50 µM,> 50 µM,> 50 µM
"CCC(=O)NC1CCCc2c(-c3cc4ccc(=O)n(C)c4s3)cncc21 (single isomer, unassigned) [Compound 023]",> 50 µM,44.2 µM·h,6.92 µM,109%,3.6 h,> 50 µM,> 50 µM,0.0125 µM,> 50 µM,1.74 µM,> 50 µM,,,,,
